Measured values reported in patent US20080194696A1 (priority 2006, published 2008).
Where two headings read alike, the source gives them in different places.

Columns and labels:
Assay type in all cases: biochemical
[1] = molecular target: T1, norepinephrine (NE) transport (Rattus norvegicus, UniProt Q63380); assay: Inhibition of [3H]NE uptake in rat hypothalamus synaptosomes; settings: for inhibition at 0.5 µM: read-out: Uptake Inhibition % at 500 nM NE; for Uptake Inhibition % at 500 nM NE: 500 nM test compound, rat hypothalamus synaptosomes, [3H]NE, 20 min at 37° C.
T1 construct: synaptosomal preparations were made from either whole brain (5-HT), striatum (DA) or hypothalamus (NE); from tissue; host or cells: rat hypothalamus synaptosomes
Experimental: (§1) The effects of arylbicyclo[3.1.0]hexylamines of the invention for inhibiting transport of norepinephrine (NE) and/or dopamine (DA) and/or serotonin (5-HT) were evaluated using preparations of synaptosomes from different regions of the rat brain according to previously-reported techniques.
(§2) Whole brains were obtained from normal rats, and synaptosomal preparations were made from either whole brain (5-HT), striatum (DA) or hypothalamus (NE) by gentle disruption in 10 volumes (w/v) of 0.32 M sucrose (0-4° C.) using a Teflon-glass homogenizer. The homogenate was then centrifuged at 1000×g for 10 min. The supernatant was retained and centrifuged at 23000 g for 20 min. The resulting pellet was gently resuspended in 200 volumes of 0.32 M sucrose (0-4° C.) using a teflon-glass homogenizer. Aliquots (250 μL) of this preparation were added to tubes, along with 0.2 μCi/mL of [^3H]5-HT, [^3H]DA, or [^3H]NE, 200 μL of selected 1-arylbicyclo[3.1.0]hexanamine test compounds (to yield final concentrations of 500 nM) and 1 mL of Krebs-Ringer bicarbonate buffer (pH 7.4). […] At the end of this period, the assay was terminated by rapid filtration over Whatman GF/C glass fiber filters. The filters were rinsed 3 times with 4 ml of Krebs-Ringer bicarbonate buffer (0-4° C.), and the radioactivity retained on the filters was measured by liquid scintillation spectrometry.

[2] = molecular target: T2, serotonin (5-HT) transport (Rattus norvegicus, UniProt P31652); assay: Inhibition of [3H]5-HT uptake in rat whole brain synaptosomes; settings: for inhibition at 0.5 µM: read-out: Uptake Inhibition % at 500 nM 5-HT; for Uptake Inhibition % at 500 nM 5-HT: 500 nM test compound, rat whole brain synaptosomes, [3H]5-HT, 15 min at 37° C.
Experimental: as §1, §2

[3] = molecular target: T3, dopamine (DA) transport (Rattus norvegicus, UniProt P23977); assay: Inhibition of [3H]DA uptake in rat striatum synaptosomes; parameters: synaptosomal preparations were made from either whole brain (5-HT), striatum (DA) or hypothalamus (NE); from tissue; host or cells: rat striatum synaptosomes; settings: for inhibition at 0.5 µM: read-out: Uptake Inhibition % at 500 nM DA; for Uptake Inhibition % at 500 nM DA: 500 nM test compound, 15 min at 37° C.
Experimental: as §1
as §2, with “([…])” for “(to yield final concentrations of 500 nM)”
Target sequence in this assay (P23977 whole entry): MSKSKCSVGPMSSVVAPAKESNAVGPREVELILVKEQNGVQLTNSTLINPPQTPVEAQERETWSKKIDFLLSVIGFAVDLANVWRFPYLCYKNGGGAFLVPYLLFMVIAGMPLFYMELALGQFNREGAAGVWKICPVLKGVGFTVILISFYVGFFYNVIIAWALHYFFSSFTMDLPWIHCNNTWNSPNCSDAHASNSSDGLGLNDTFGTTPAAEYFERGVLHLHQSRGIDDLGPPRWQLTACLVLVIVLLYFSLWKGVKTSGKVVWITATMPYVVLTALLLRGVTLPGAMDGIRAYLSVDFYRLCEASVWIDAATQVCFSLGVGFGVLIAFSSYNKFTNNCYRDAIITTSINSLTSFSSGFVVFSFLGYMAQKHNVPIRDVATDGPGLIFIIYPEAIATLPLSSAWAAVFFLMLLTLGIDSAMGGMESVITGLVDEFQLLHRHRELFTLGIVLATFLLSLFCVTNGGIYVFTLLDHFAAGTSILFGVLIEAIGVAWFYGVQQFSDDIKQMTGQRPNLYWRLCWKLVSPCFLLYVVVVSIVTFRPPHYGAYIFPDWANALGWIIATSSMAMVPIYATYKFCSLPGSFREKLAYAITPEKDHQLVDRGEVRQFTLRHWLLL

[4] = molecular target: T2, serotonin (5-HT) transport; assay: Inhibition of [3H]5-HT uptake in rat whole brain synaptosomes
[5] = molecular target: T1, norepinephrine (NE) transport; assay: Inhibition of [3H]NE uptake in rat hypothalamus synaptosomes
[6] = molecular target: T3, dopamine (DA) transport; assay: Inhibition of [3H]DA uptake in rat striatum synaptosomes
Experimental: as §1
as §2, with “([…])” for “(to yield final concentrations of 500 nM)”
Target sequence in this assay (P23977 whole entry, looked up): as the sequence (P23977 whole entry) above

[7] = rat striatum synaptosomes, [3H]DA, read-out: Uptake IC50 (nM) DA
[8] = rat striatum synaptosomes, [3H]DA

T1 sequence (Q63380 1-617): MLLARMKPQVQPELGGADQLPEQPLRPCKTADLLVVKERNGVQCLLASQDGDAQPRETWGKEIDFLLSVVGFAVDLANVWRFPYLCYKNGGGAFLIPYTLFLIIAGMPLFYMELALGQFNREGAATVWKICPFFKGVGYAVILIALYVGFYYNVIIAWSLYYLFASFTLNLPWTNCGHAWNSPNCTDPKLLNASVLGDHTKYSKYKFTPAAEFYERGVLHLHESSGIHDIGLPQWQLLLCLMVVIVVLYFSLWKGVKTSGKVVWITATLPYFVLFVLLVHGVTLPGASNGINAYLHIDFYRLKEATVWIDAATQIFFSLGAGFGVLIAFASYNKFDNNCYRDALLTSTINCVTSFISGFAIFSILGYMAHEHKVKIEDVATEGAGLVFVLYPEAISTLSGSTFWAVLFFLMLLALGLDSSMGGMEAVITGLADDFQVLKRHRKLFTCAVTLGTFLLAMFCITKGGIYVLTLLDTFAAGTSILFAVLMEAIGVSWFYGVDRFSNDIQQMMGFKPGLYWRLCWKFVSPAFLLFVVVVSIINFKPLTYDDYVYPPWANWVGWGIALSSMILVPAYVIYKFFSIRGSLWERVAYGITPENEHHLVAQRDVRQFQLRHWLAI
T2 sequence (P31652 whole entry): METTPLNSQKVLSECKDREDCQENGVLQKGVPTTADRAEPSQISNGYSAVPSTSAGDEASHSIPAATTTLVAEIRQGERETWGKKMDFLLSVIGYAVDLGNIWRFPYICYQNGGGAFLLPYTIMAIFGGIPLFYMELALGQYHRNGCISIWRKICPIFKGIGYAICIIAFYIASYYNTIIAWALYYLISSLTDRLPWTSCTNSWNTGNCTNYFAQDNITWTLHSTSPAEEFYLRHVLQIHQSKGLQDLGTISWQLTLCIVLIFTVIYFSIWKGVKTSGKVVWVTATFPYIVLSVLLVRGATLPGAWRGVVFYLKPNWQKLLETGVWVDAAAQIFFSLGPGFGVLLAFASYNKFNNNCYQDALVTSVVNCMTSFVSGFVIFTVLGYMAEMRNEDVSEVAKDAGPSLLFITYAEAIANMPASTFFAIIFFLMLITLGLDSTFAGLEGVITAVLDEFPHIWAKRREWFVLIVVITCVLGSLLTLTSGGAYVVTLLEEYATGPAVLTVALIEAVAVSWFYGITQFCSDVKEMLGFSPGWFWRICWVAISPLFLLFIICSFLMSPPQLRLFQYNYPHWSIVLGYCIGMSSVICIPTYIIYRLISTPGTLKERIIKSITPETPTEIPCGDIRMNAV

Row | Compound | inhibition at 0.5 µM [1] [%] | inhibition at 0.5 µM [2] [%] | inhibition at 0.5 µM [3] [%] | other results
1 | Cc1ccc(C23CC2CCC3N)cc1 (stereo not shown) [1-p-tolylbicyclo[3.1.0]hexan-2-amine] | 14 | 20 | 18 | 
2 | Cc1ccc(C23CCC(N)C2C3)cc1 (stereo not shown) | 50 | 25 | 31 | 
3 | NC1C[C@@H]2C[C@]2(c2ccc(Cl)c(Cl)c2)C1 (stereo partly shown) | 59 | 75 | 83 | 
4 | CN(C)C1CCC2(c3ccc4ccccc4c3)CC12 (stereo not shown) | 26 | 96 | 42 | 
5 | CNC1CCC2CC21c1ccc(Cl)c(Cl)c1 (stereo not shown) [1-(3,4-dichlorophenyl)-N-methylbicyclo[3.1.0]hexan-2-amine] | 94 | 15 | 101 | IC50 [1]: 18 nM; IC50 [4]: 3680 nM; IC50 [3]: 3 nM
6 | NC1CC2CC2(c2ccc(Cl)c(Cl)c2)C1 (stereo not shown) [1-(3,4-dichlorophenyl)bicyclo[3.1.0]hexan-3-amine] | 76 | 89 | 77 | IC50 [5]: 126 nM; IC50 [4]: 38 nM; IC50 [3, 7]: 111 nM
7 | CN(C)C1CCC2(c3ccc(Cl)c(Cl)c3)CC12 (stereo not shown) | 29 | 95 | 34 | 
8 | NC1C[C@H]2C[C@@]2(c2cccc3ccccc23)C1 (stereo partly shown) | 76 | 65 | 53 | IC50 [5]: 282 nM; IC50 [4]: 425 nM; IC50 [3, 7]: 496 nM
9 | N-methyl-5-p-tolylbicyclo[3.1.0]hexan-2-amine |  |  |  | Uptake Inhibition % at 500 nM NE [1]: 81%; Uptake Inhibition % at 500 nM 5-HT [2]: 82%; IC50 [5]: 74 nM; IC50 [4]: 76 nM; Uptake Inhibition % at 500 nM DA [3, 8]: 23%; IC50 [3, 7]: 8730 nM
10 | CNC1CCC2(c3ccc4ccccc4c3)CC12 (stereo not shown) | 47 | 90 | 45 | 
11 | 5-p-tolylbicyclo[3.1.0]hexan-2-amine |  |  |  | Uptake Inhibition % at 500 nM NE [1]: 42%; Uptake Inhibition % at 500 nM 5-HT [2]: 74%; Uptake Inhibition % at 500 nM DA [3, 8]: 39%
12 | NC1CCC2CC12c1ccc(Cl)c(Cl)c1 (stereo not shown) [1-(3,4-dichlorophenyl)bicyclo[3.1.0]hexan-2-amine] | 34 | 5 | 86 | 
13 | CNC1CCC2(c3ccc(Cl)c(Cl)c3)CC12 (stereo not shown) | 63 | 94 | 56 | IC50 [1]: 444 nM; IC50 [2]: 75 nM; IC50 [3]: 360 nM
14 | CNC1CCC2(c3ccc(C)cc3)CC12 (stereo not shown) | 89 | 37 | 63 | IC50 [1]: 313 nM; IC50 [2]: 1190 nM; IC50 [3]: 858 nM
15 | CN(C)C1CCC2CC21c1ccc(Cl)c(Cl)c1 (stereo not shown) [1-(3,4-dichlorophenyl)-N,N-dimethylbicyclo[3.1.0]hexan-2-amine] | 96 | 38 | 99 | IC50 [1]: 11 nM; IC50 [2]: 1240 nM; IC50 [3]: 9 nM
16 | Cc1ccc(C23CC(N(C)C)CC2C3)cc1 (stereo not shown) [N,N-dimethyl-1-p-tolylbicyclo[3.1.0]hexan-3-amine] | 50 | 66 | 0 | 
17 | CNC1CCC2(c3cccc4ccccc34)CC12 (stereo not shown) | 49 | 90 | 29 | 
18 | CNC1CCC2CC21c1ccc(C)cc1 (stereo not shown) [N-methyl-1-p-tolylbicyclo[3.1.0]hexan-2-amine] | 8 | 4 | 33 | 
19 | CNC1CC2CC2(c2ccc(C)cc2)C1 (stereo not shown) [N-methyl-1-p-tolylbicyclo[3.1.0]hexan-3-amine] | 73 | 69 | 43 | 
20 | Cc1ccc(C23CC(N)CC2C3)cc1 (stereo not shown) [1-p-tolylbicyclo[3.1.0]hexan-3-amine] | 38 | 21 | 44 | 
21 | Cc1ccc(C23CCC(N(C)C)C2C3)cc1 (stereo not shown) | 57 | 44 | 55 | 
22 | NC1C[C@H]2C[C@@]2(c2ccc(Cl)c(Cl)c2)C1 (stereo partly shown) |  |  |  | IC50 [6]: 60 nM
23 | Cc1ccc(C23CC2CCC3N(C)C)cc1 (stereo not shown) [N,N-dimethyl-1-p-tolylbicyclo[3.1.0]hexan-2-amine] | 71 | 0 | 70 | IC50 [1]: 2090 nM; IC50 [2]: > 5000 nM; IC50 [3]: 335 nM
24 | CN(C)C1CCC2(c3cccc4ccccc34)CC12 (stereo not shown) | 25 | 76 | 15 | 
